Experimental data reported in the kinase profiling compilation of Christmann-Franck et al. (2016).

Tests used:
Test in all cases: radiometric filter-binding kinase assay, Kinase HotSpot
Details in all cases: compound 0.5 µM; ATP 10 µM
PRKD2 (human) = PRKD2 (human) (UniProt Q9BZL6)
SRPK3 (human) = SRPK3 (human) (UniProt Q9UPE1)
IGF1R (human) = IGF1R (human) (UniProt P08069)
MAPK9 (human) = MAPK9 (human) (UniProt P45984)
NUAK2 (human) = NUAK2 (human) (UniProt Q9H093)
DDR2 (human) = DDR2 (human) (UniProt Q16832)
MAPKAPK2 (human) = MAPKAPK2 (human) (UniProt P49137)
MYLK2 (human) = MYLK2 (human) (UniProt Q9H1R3)
MAPK8 (human) = MAPK8 (human) (UniProt P45983)
BMX (human) = BMX (human) (UniProt P51813)
PRKCB2 (human) = PRKCB2 (human) (UniProt P05771)
TAOK2 (human) = TAOK2 (human) (UniProt Q9UL54)
STK3 (human) = STK3 (human) (UniProt Q13188)
FGFR2 (human) = FGFR2 (human) (UniProt P21802)
BTK (human) = BTK (human) (UniProt Q06187)
CDK4 CCND3 (human) = CDK4 CCND3 (human) (UniProt P30281+P11802)
Sequence of CDK4 CCND3 (human) (P11802 whole entry, looked up): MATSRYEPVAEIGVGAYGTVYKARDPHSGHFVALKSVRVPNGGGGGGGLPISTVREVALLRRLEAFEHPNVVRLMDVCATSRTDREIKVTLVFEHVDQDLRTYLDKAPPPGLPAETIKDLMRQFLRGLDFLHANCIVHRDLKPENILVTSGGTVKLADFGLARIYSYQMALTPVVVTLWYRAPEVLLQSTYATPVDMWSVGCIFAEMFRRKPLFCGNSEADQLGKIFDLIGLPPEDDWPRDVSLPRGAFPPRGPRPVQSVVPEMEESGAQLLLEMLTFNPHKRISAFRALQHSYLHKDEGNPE
Sequence of CDK4 CCND3 (human) (P30281 whole entry, looked up): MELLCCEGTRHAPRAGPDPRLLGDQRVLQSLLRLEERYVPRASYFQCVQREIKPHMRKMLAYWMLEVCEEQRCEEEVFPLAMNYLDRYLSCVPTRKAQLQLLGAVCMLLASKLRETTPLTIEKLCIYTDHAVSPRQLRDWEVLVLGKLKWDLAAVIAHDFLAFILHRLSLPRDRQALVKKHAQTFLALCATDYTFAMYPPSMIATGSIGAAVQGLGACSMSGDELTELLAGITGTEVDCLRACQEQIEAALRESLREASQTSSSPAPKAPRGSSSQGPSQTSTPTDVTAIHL

CDK4 CCND1 (human) = CDK4 CCND1 (human) (UniProt P24385+P11802)
Sequence of CDK4 CCND1 (human) (P11802 whole entry, looked up): as the sequence (P11802 whole entry, looked up) above
Sequence of CDK4 CCND1 (human) (P24385 whole entry, looked up): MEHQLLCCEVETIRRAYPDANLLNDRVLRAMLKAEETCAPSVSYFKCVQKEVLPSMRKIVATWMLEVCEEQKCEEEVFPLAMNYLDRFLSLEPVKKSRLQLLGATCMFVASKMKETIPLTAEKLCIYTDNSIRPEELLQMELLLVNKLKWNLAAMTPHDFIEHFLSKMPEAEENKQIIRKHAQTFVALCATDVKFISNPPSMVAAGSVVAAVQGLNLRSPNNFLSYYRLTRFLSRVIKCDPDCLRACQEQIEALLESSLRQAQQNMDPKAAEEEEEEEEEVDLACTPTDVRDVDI

PTK6 (human) = PTK6 (human) (UniProt Q13882)
Sequence of PTK6 (human) (Q13882 whole entry, looked up): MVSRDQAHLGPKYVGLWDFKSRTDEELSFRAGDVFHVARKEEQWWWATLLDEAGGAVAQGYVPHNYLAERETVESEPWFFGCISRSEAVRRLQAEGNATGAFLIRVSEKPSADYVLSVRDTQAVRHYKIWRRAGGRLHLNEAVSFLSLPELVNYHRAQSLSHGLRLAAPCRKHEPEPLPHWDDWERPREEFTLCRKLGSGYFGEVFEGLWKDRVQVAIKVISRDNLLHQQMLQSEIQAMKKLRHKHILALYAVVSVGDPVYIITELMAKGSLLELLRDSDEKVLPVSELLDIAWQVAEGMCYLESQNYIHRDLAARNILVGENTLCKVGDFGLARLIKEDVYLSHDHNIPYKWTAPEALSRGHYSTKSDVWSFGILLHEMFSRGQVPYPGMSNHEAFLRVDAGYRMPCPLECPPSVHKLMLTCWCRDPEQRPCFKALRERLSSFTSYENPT

HIPK3 (human) = HIPK3 (human) (UniProt Q9H422)
DMPK (human) = DMPK (human) (UniProt Q09013)
Sequence of DMPK (human) (Q09013 whole entry, looked up): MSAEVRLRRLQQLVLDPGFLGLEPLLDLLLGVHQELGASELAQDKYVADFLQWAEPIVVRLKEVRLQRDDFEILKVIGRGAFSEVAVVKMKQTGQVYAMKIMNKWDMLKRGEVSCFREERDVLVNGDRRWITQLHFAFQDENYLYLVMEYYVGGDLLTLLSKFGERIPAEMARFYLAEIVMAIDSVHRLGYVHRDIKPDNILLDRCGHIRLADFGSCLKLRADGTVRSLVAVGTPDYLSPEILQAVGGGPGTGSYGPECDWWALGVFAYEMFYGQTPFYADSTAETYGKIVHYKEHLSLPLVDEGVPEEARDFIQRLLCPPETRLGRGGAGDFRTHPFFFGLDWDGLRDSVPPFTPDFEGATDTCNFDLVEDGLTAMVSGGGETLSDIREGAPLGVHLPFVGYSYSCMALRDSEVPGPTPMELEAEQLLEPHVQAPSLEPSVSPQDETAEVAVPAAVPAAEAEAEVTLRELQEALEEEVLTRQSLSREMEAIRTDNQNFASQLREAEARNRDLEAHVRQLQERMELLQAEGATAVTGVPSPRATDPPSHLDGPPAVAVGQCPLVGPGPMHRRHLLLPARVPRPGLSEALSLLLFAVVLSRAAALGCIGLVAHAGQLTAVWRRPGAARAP

SYK (human) = SYK (human) (UniProt P43405)
IRAK1 (human) = IRAK1 (human) (UniProt P51617)
FGFR4 (human) = FGFR4 (human) (UniProt P22455)
DCLK2 (human) = DCLK2 (human) (UniProt Q8N568)
NEK2 (human) = NEK2 (human) (UniProt P51955)
CSNK1E (human) = CSNK1E (human) (UniProt P49674)
AKT2 (human) = AKT2 (human) (UniProt P31751)
CDK7 CCNH MNAT1 (human) = CDK7 CCNH MNAT1 (human) (UniProt P50613+P51948+P51946)
EPHA8 (human) = EPHA8 (human) (UniProt P29322)
Sequence of EPHA8 (human) (P29322 whole entry, looked up): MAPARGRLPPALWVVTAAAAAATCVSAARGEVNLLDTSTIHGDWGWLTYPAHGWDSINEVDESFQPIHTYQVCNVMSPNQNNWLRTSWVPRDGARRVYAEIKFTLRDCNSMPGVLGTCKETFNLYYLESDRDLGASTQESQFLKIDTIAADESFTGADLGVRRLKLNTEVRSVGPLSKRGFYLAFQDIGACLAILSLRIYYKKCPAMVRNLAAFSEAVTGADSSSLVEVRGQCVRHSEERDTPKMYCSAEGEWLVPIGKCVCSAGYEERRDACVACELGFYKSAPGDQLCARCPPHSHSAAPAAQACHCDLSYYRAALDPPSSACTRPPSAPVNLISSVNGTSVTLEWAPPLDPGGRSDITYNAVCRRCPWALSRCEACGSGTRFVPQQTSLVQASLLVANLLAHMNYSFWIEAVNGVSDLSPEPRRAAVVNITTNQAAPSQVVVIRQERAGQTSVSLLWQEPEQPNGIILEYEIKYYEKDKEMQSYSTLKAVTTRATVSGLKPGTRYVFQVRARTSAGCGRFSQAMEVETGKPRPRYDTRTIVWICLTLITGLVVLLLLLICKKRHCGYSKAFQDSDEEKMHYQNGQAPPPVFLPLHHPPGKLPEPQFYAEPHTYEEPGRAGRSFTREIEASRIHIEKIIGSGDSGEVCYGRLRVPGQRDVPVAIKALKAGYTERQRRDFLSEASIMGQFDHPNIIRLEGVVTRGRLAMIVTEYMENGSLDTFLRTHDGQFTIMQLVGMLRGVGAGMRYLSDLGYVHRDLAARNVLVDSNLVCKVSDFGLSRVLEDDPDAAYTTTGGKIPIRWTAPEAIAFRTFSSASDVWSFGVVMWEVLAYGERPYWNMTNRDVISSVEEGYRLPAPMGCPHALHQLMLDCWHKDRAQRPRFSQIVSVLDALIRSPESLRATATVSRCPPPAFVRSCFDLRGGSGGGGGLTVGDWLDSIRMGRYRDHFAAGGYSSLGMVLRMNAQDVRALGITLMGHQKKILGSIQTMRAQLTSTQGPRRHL

BLK (human) = BLK (human) (UniProt P51451)
Sequence of BLK (human) (P51451 whole entry, looked up): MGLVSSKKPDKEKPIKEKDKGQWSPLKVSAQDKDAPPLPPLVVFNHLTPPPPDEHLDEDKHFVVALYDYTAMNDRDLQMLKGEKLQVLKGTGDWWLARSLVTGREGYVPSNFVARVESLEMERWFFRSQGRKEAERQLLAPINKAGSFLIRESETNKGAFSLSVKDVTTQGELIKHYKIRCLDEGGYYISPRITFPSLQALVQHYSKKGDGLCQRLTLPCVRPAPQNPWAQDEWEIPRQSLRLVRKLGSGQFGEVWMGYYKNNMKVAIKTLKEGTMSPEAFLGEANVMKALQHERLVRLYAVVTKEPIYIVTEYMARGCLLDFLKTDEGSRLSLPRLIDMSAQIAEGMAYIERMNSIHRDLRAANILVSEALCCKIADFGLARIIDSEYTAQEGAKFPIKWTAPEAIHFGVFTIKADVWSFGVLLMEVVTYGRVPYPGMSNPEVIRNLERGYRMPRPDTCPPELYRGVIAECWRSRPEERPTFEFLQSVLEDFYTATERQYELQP

TSSK2 (human) = TSSK2 (human) (UniProt Q96PF2)
ITK (human) = ITK (human) (UniProt Q08881)
HCK (human) = HCK (human) (UniProt P08631)
MAPK12 (human) = MAPK12 (human) (UniProt P53778)
Sequence of MAPK12 (human) (P53778 whole entry, looked up): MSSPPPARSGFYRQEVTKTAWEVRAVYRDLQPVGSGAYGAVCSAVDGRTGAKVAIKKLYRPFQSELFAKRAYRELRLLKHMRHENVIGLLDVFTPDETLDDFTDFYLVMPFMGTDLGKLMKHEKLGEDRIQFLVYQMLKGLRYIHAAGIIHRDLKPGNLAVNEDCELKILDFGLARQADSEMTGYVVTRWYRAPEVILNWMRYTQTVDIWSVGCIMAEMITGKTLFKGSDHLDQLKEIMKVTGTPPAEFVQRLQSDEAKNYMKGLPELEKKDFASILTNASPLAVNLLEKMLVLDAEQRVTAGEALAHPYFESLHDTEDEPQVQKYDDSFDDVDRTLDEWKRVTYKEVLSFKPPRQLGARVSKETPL

PLK2 (human) = PLK2 (human) (UniProt Q9NYY3)
Sequence of PLK2 (human) (Q9NYY3 whole entry, looked up): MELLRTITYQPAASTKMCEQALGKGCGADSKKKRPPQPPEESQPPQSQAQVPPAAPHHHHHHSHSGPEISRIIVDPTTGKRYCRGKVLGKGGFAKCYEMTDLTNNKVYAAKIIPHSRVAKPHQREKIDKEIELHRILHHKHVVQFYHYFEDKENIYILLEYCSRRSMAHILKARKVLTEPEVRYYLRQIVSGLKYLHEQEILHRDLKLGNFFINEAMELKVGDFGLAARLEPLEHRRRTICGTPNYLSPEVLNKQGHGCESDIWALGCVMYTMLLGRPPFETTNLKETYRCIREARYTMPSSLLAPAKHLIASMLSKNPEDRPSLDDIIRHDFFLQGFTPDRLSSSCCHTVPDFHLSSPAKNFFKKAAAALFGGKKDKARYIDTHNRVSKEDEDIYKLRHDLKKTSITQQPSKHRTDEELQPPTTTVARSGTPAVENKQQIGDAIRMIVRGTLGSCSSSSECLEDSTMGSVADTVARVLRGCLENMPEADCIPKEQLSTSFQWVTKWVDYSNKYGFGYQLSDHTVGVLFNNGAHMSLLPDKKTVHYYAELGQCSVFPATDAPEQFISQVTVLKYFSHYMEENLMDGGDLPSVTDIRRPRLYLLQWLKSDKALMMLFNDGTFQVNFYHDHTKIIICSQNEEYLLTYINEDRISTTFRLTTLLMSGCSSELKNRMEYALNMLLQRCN

STK10 (human) = STK10 (human) (UniProt O94804)
STK24 (human) = STK24 (human) (UniProt Q9Y6E0)
MKNK2 (human) = MKNK2 (human) (UniProt Q9HBH9)
SRC (human) = SRC (human) (UniProt P12931)
PRKCD (human) = PRKCD (human) (UniProt Q05655)
VRK1 (human) = VRK1 (human) (UniProt Q99986)
Sequence of VRK1 (human) (Q99986 whole entry, looked up): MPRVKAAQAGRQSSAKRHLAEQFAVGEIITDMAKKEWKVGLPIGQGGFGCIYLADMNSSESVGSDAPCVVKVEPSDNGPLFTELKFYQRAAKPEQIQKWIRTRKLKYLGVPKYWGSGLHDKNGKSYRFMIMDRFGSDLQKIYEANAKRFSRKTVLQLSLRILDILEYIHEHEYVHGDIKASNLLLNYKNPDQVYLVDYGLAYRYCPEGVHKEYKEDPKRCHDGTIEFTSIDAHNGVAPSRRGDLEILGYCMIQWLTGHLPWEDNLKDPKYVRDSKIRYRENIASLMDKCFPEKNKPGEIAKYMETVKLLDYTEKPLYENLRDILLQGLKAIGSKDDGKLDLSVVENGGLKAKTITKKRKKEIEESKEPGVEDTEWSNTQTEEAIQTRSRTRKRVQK

EPHB1 (human) = EPHB1 (human) (UniProt P54762)

With COc1cc2ncnc(Nc3ccc(O)c(Br)c3)c2cc1OC as the molecule, how does the residual activity (PRKD2 (human)) read?
Its residual activity is 69.7%.

And the residual activity (SRPK3 (human))?
The residual activity was 92.4%.

And the residual activity (IGF1R (human))?
Its residual activity is 104%.

And the residual activity (MAPK9 (human))?
Its residual activity is 88.4%.

What about the residual activity (NUAK2 (human)) of the same molecule?
The residual activity was 88.3%.

What about the residual activity (DDR2 (human)) of the same molecule?
Its residual activity is 119%.

And the residual activity (MAPKAPK2 (human))?
Its residual activity is 97.7%.

And the residual activity (MYLK2 (human))?
Its residual activity is 87.3%.

What about the residual activity (MAPK8 (human)) of the same molecule?
The residual activity was 101%.

What about the residual activity (BMX (human)) of the same molecule?
The residual activity was 95.3%.

What about the residual activity (PRKCB2 (human)) of the same molecule?
The residual activity was 98.7%.

What about the residual activity (TAOK2 (human)) of the same molecule?
The residual activity was 95.8%.

And the residual activity (STK3 (human))?
The residual activity was 89.6%.

What about the residual activity (FGFR2 (human)) of the same molecule?
Its residual activity is 95.9%.

What about the residual activity (BTK (human)) of the same molecule?
Its residual activity is 85.5%.

And the residual activity (CDK4 CCND3 (human))?
The residual activity was 110%.

And the residual activity (CDK4 CCND1 (human))?
Its residual activity is 101%.

And the residual activity (PTK6 (human))?
The residual activity was 20.1%.

And the residual activity (HIPK3 (human))?
The residual activity was 67.7%.

What about the residual activity (DMPK (human)) of the same molecule?
The residual activity was 101%.

What about the residual activity (SYK (human)) of the same molecule?
The residual activity was 86.7%.

And the residual activity (IRAK1 (human))?
The residual activity was 75.5%.

What about the residual activity (FGFR4 (human)) of the same molecule?
Its residual activity is 103%.

What about the residual activity (DCLK2 (human)) of the same molecule?
Its residual activity is 101%.

What about the residual activity (NEK2 (human)) of the same molecule?
Its residual activity is 105%.

What about the residual activity (CSNK1E (human)) of the same molecule?
Its residual activity is 85.1%.

What about the residual activity (AKT2 (human)) of the same molecule?
The residual activity was 98.7%.

What about the residual activity (CDK7 CCNH MNAT1 (human)) of the same molecule?
Its residual activity is 97%.

And the residual activity (EPHA8 (human))?
Its residual activity is 88.3%.

And the residual activity (BLK (human))?
The residual activity was 83.8%.

What about the residual activity (TSSK2 (human)) of the same molecule?
Its residual activity is 98.7%.

What about the residual activity (ITK (human)) of the same molecule?
The residual activity was 92.8%.

What about the residual activity (HCK (human)) of the same molecule?
Its residual activity is 52.2%.

And the residual activity (MAPK12 (human))?
The residual activity was 92.8%.

And the residual activity (PLK2 (human))?
The residual activity was 104%.

What about the residual activity (STK10 (human)) of the same molecule?
The residual activity was 14.5%.

What about the residual activity (STK24 (human)) of the same molecule?
The residual activity was 91.7%.

What about the residual activity (MKNK2 (human)) of the same molecule?
Its residual activity is 18%.

What about the residual activity (SRC (human)) of the same molecule?
The residual activity was 77.5%.

What about the residual activity (PRKCD (human)) of the same molecule?
The residual activity was 97.3%.

What about the residual activity (VRK1 (human)) of the same molecule?
Its residual activity is 86.4%.

What about the residual activity (EPHB1 (human)) of the same molecule?
Its residual activity is 81.4%.

What does the source list for COc1cc2c(cc1OC)-c1[nH]nc(Nc3cccc(F)c3)c1C2?
residual activity (PRKD2 (human)): 96.3%; residual activity (SRPK3 (human)): 99.7%; residual activity (IGF1R (human)): 93.9%; residual activity (MAPK9 (human)): 75.9%; residual activity (NUAK2 (human)): 94.6%; residual activity (DDR2 (human)): 110%; residual activity (MAPKAPK2 (human)): 97.2%; residual activity (MYLK2 (human)): 86.4%; residual activity (MAPK8 (human)): 85.2%; residual activity (BMX (human)): 74.8%; residual activity (PRKCB2 (human)): 103%; residual activity (TAOK2 (human)): 97.1%; residual activity (STK3 (human)): 93%; residual activity (FGFR2 (human)): 100%; residual activity (BTK (human)): 40.8%; residual activity (CDK4 CCND3 (human)): 95.4%; residual activity (CDK4 CCND1 (human)): 93.9%; residual activity (PTK6 (human)): 81%; residual activity (HIPK3 (human)): 100%; residual activity (DMPK (human)): 109%; residual activity (SYK (human)): 103%; residual activity (IRAK1 (human)): 97.8%; residual activity (FGFR4 (human)): 91.6%; residual activity (DCLK2 (human)): 88.2%; residual activity (NEK2 (human)): 93%; residual activity (CSNK1E (human)): 94.3%; residual activity (AKT2 (human)): 95.3%; residual activity (CDK7 CCNH MNAT1 (human)): 101%; residual activity (EPHA8 (human)): 94.2%; residual activity (BLK (human)): 74.2%; residual activity (TSSK2 (human)): 75.1%; residual activity (ITK (human)): 85.5%; residual activity (HCK (human)): 61.9%; residual activity (MAPK12 (human)): 101%; residual activity (PLK2 (human)): 97.1%; residual activity (STK10 (human)): 89%; residual activity (STK24 (human)): 99.9%; residual activity (MKNK2 (human)): 91.5%; residual activity (SRC (human)): 63.4%; residual activity (PRKCD (human)): 111%; residual activity (VRK1 (human)): 89.9%; residual activity (EPHB1 (human)): 100%

For O=C1NC(=O)c2c1c1c3ccccc3[nH]c1c1[nH]c3cc(Br)ccc3c21, which residual activity (PRKD2 (human)) is on record?
Its residual activity is 45.9%.

What about the residual activity (SRPK3 (human)) of the same molecule?
Its residual activity is 89.2%.

And the residual activity (IGF1R (human))?
Its residual activity is 15%.

What about the residual activity (MAPK9 (human)) of the same molecule?
The residual activity was 99.6%.

What about the residual activity (NUAK2 (human)) of the same molecule?
The residual activity was 84.5%.

And the residual activity (DDR2 (human))?
The residual activity was 91.8%.

And the residual activity (MAPKAPK2 (human))?
Its residual activity is 101%.

What about the residual activity (MYLK2 (human)) of the same molecule?
Its residual activity is 43.3%.

What about the residual activity (MAPK8 (human)) of the same molecule?
Its residual activity is 85.2%.

And the residual activity (BMX (human))?
Its residual activity is 92%.

What about the residual activity (PRKCB2 (human)) of the same molecule?
The residual activity was 72.8%.

What about the residual activity (TAOK2 (human)) of the same molecule?
The residual activity was 94.1%.

What about the residual activity (STK3 (human)) of the same molecule?
The residual activity was 55.8%.

What about the residual activity (FGFR2 (human)) of the same molecule?
The residual activity was 98.4%.

And the residual activity (BTK (human))?
Its residual activity is 74.8%.

What about the residual activity (CDK4 CCND3 (human)) of the same molecule?
Its residual activity is 21.1%.

And the residual activity (CDK4 CCND1 (human))?
Its residual activity is 84.9%.

And the residual activity (PTK6 (human))?
Its residual activity is 92.7%.

What about the residual activity (HIPK3 (human)) of the same molecule?
The residual activity was 93.3%.

And the residual activity (DMPK (human))?
The residual activity was 104%.

And the residual activity (SYK (human))?
The residual activity was 58.3%.

And the residual activity (IRAK1 (human))?
The residual activity was 81.8%.

What about the residual activity (FGFR4 (human)) of the same molecule?
Its residual activity is 90.6%.

What about the residual activity (DCLK2 (human)) of the same molecule?
The residual activity was 87.2%.

What about the residual activity (NEK2 (human)) of the same molecule?
Its residual activity is 92%.

And the residual activity (CSNK1E (human))?
Its residual activity is 82.2%.

And the residual activity (AKT2 (human))?
Its residual activity is 86.9%.

And the residual activity (CDK7 CCNH MNAT1 (human))?
Its residual activity is 93.1%.

What about the residual activity (EPHA8 (human)) of the same molecule?
The residual activity was 102%.

What about the residual activity (BLK (human)) of the same molecule?
The residual activity was 83.9%.

What about the residual activity (TSSK2 (human)) of the same molecule?
The residual activity was 96.9%.

What about the residual activity (ITK (human)) of the same molecule?
The residual activity was 84.1%.

What about the residual activity (HCK (human)) of the same molecule?
The residual activity was 92.4%.

And the residual activity (MAPK12 (human))?
Its residual activity is 100%.

And the residual activity (PLK2 (human))?
The residual activity was 93.7%.

And the residual activity (STK10 (human))?
Its residual activity is 84.6%.

And the residual activity (STK24 (human))?
The residual activity was 80.1%.

What about the residual activity (MKNK2 (human)) of the same molecule?
The residual activity was 44%.

What about the residual activity (SRC (human)) of the same molecule?
Its residual activity is 88.9%.

What about the residual activity (PRKCD (human)) of the same molecule?
The residual activity was 99.1%.

What about the residual activity (VRK1 (human)) of the same molecule?
The residual activity was 92.3%.

What about the residual activity (EPHB1 (human)) of the same molecule?
The residual activity was 95.5%.
